IC50 and Ki data for seven compounds are collected here from ChEMBL document CHEMBL1909046, “DrugMatrix in vitro pharmacology data”.

The structures appear in SMILES notation.

Data set [1] addresses T1, Alpha-2A adrenergic receptor (Homo sapiens, UniProt P08913).
T1 sequence (P08913 whole entry): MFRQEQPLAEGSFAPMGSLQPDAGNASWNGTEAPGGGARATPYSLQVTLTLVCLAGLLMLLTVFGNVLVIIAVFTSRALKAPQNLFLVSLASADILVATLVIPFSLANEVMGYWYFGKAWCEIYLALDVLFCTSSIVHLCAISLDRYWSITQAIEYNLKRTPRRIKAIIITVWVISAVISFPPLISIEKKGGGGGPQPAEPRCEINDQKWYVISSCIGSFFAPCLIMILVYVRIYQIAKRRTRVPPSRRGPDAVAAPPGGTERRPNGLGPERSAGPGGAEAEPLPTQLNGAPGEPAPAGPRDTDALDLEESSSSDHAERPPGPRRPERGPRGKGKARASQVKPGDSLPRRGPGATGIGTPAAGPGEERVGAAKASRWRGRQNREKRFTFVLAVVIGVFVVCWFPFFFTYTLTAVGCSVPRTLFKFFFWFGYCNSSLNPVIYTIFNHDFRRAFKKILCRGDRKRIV
The format is cell membranes, Sf9, Membrane.

The nature of data set [2]: DRUGMATRIX: Calcium Channel Type L, Phenylalkylamine radioligand binding (ligand: [3H] (-)-Desmethoxyverapamil (D-888)). The note with it: Not Active = under 50% inhibition at 10 µM. Format: cell membranes, Rattus norvegicus, Wistar, Brain, Membrane.
The nature of data set [3]: DRUGMATRIX: Calcium Channel Type L, Benzothiazepine radioligand binding (ligand: [3H] Diltiazem). The format is cell membranes, Rattus norvegicus, Wistar, Brain, Membrane. The settings on record: Not Active = under 50% inhibition at 10 µM.
Data set [4] in a line: DRUGMATRIX: Purinergic P2X radioligand binding (ligand: [3H] alpha, beta-Methylene-ATP). Format: cell membranes, Oryctolagus cuniculus, New Zealand albino, Urinary bladder, Membrane. The note with it: Not Active = under 50% inhibition at 10 µM.
Data set [5] concerns the target 5-hydroxytryptamine receptor 4 (Cavia porcellus, UniProt O70528). The format is cell membranes, Dunkin-Hartley, Striatum, Membrane. Further: in other assays of this panel Not Active means under 50% inhibition at 10 µM.
A short description of data set [6]: DRUGMATRIX: Nicotinic Acetylcholine radioligand binding (ligand: [125I] Epibatidine). The format is cell membranes, Membrane. The note with it: imr-32; Not Active = under 50% inhibition at 10 µM.
In the next data set the target is T2, Cytochrome P450 2A6 (Homo sapiens, UniProt P11509). Further: in other assays of this panel Not Active means under 50% inhibition at 10 µM.
T2 sequence (P11509 whole entry): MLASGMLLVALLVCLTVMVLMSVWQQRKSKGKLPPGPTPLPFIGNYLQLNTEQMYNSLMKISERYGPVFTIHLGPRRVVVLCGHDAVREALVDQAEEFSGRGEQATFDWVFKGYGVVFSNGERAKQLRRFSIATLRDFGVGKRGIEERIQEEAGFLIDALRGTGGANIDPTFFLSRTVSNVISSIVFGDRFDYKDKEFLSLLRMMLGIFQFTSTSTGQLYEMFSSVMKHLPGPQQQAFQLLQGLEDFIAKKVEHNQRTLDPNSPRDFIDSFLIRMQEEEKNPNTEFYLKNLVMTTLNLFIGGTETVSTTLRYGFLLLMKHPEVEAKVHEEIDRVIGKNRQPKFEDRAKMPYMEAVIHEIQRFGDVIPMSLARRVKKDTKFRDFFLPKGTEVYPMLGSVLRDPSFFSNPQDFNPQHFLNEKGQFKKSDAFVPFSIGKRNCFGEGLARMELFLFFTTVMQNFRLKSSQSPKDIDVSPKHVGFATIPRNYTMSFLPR
The note with it: bti-tn-5b1-4.

A word on the IC50: it is the midpoint of a concentration-inhibition curve. For orientation: Ki means the equilibrium dissociation constant of an inhibitor or competing ligand from its target.

5-hydroxytryptamine receptor 4, sequence (O70528 whole entry): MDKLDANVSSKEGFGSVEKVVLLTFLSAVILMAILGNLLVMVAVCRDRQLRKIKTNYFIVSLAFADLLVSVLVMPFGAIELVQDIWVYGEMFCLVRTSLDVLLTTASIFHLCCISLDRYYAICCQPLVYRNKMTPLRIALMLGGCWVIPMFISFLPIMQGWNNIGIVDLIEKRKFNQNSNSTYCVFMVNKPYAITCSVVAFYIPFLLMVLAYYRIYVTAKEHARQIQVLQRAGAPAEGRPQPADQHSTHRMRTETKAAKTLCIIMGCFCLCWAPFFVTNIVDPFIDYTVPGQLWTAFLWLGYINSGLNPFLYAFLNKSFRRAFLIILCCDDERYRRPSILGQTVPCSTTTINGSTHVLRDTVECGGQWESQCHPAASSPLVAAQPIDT

With `CC(C)NCC(O)c1ccccc1Cl` (stereo not given) [CLORPRENALINE], the IC50 entry in data set [1] (sf9), in data set [2], in data set [3], in data set [4], in data set [5] and in data set [6] was “Not Active” throughout. Besides, on Cytochrome P450 2A6, the IC50 entry is listed as “Not Active”. Moreover, the Ki entry (in data set [2]; in data set [3]; in data set [4]; in data set [6]; on Cytochrome P450 2A6) was “Not Active” throughout.

Turning to `CN1CCN(C(c2ccccc2)c2ccccc2)CC1` [CYCLIZINE], the IC50 in data set [1] (read-out: IC50) was 1.55 µM; in data set [2] (read-out: IC50), 4.64 µM; in data set [3] (read-out: IC50), 2.52 µM; in data set [4] it was “Not Active”; in data set [5], “Not Active”; in data set [6] it was “Not Active”. The IC50 entry against Cytochrome P450 2A6 is reported as “Not Active”. Moreover, the Ki was 0.582 µM in data set [1] (read-out: Ki); 4.51 µM in data set [2] (read-out: Ki); 2.24 µM in data set [3] (read-out: Ki); “Not Active” in data set [4]; “Not Active” in data set [6]; “Not Active” on Cytochrome P450 2A6.

`CN1C[C@@H]2C[C@H]1CN2c1cc2c(cc1F)c(=O)c(C(=O)O)cn2C1CC1` [DANOFLOXACIN]: the half-inhibitory concentration (IC50) result in data set [1] (sf9), in data set [2], in data set [3], in data set [4], in data set [5] and in data set [6] was “Not Active” in each case. For the same compound, at Cytochrome P450 2A6, the IC50 entry was “Not Active”. The Ki result (in data set [2]; in data set [3]; in data set [4]; in data set [6]; on Cytochrome P450 2A6) was “Not Active” throughout.

Consider `COc1cccc2c1C(=O)c1c(O)c3c(c(O)c1C2=O)C[C@@](O)(C(C)=O)C[C@@H]3O[C@H]1C[C@H](N)[C@H](O)[C@H](C)O1` [DAUNORUBICIN], for which the IC50 entry in data set [1] (sf9), in data set [2], in data set [3], in data set [4], in data set [5] and in data set [6] was “Not Active” each time. For the same compound, the IC50 entry against Cytochrome P450 2A6 is on record as “Not Active”. Also, the Ki result (in data set [2]; in data set [3]; in data set [4]; in data set [6]; at Cytochrome P450 2A6) was “Not Active” throughout.

Consider `O=C(O)c1cc(-c2ccc(F)cc2F)ccc1O` [DIFLUNISAL], for which the concentration for half-maximal inhibition (IC50) entry in data set [1] (sf9), in data set [2], in data set [3], in data set [4], in data set [5] and in data set [6] was “Not Active” in each case. Moreover, the IC50 result on Cytochrome P450 2A6 is “Not Active”. Further, the inhibition constant (Ki) entry (in data set [2]; in data set [3]; in data set [4]; in data set [6]; at Cytochrome P450 2A6) was “Not Active” each time.

For `C[S+](C)[O-]` [DIMETHYL SULFOXIDE], the half-inhibitory concentration (IC50) entry in data set [1] (sf9), in data set [2], in data set [3], in data set [4], in data set [5] and in data set [6] was “Not Active” each time. Further, at Cytochrome P450 2A6, the 50% inhibitory concentration (IC50) result is “Not Active”. Besides, the inhibition constant Ki result (in data set [2]; in data set [3]; in data set [4]; in data set [6]; at Cytochrome P450 2A6) was “Not Active” each time.

As to `CC1=NN(c2ccccc2)C(=O)C1` [EDARAVONE], the IC50 entry in data set [1] (sf9), in data set [2], in data set [3], in data set [4], in data set [5] and in data set [6] was “Not Active” in each case. On Cytochrome P450 2A6, the IC50 entry was “Not Active”. For the same compound, the Ki entry (in data set [2]; in data set [3]; in data set [4]; in data set [6]; at Cytochrome P450 2A6) was “Not Active” throughout.
